Legend:
[1] = [M+H]+; instrument: TW; Major Mix IMS/Tof Calibration Kit (Waters)
[2] = instrument: DT, stepped-field

collision cross section (N2) ([2]; [M+2Na-H]+) | collision cross section (N2) ([2]; [M+H]+) | collision cross section (N2) ([2]; [M+Na]+) | SMILES | further results
282.48 Å² |  |  | CCCCC/C=C\C/C=C\C/C=C\C/C=C\C/C=C\CCC(=O)O[C@H](COCCCCCCCCCCCCCCCC)COP(=O)(O)OCCN [PE(o38:05)] | 
293.52 Å² |  |  | CCCCC/C=C\C/C=C\C/C=C\C/C=C\CCCCCC(=O)O[C@H](COCCCCCCCCCCCCCCCCCC)COP(=O)(O)OCCN [PE(o40:04)] | 
287.95 Å² | 283.39 Å² |  | CCCCCCCC/C=C\CCCCCCCC(=O)O[C@H](COC(=O)CCCCCCCCCCCCCCCCC)COP(=O)(O)OC[C@H](N)C(=O)O [PS(36:01)] | collision cross section (N2) ([2]; [M+K]+): 287.48 Å²; collision cross section (N2) ([2]; [M-H]-): 282.92 Å²
281.53 Å² |  |  | CCCCC/C=C\C/C=C\C/C=C\C/C=C\CCCCCC(=O)OC[C@H](COP(=O)(O)OC[C@H](N)C(=O)O)OC(=O)CCCCCCCCCCCCC [PS(36:04)] | 
292.46 Å² | 287.73 Å² |  | CCCCCC/C=C\CCCCCCCC(=O)OC[C@H](COP(=O)(O)OC[C@H](N)C(=O)O)OC(=O)CCCCCCCCC/C=C\CCCCCCCCCC [PS(38:02)] | collision cross section (N2) ([2]; [M-H]-): 287.56 Å²
299.44 Å² | 294.02 Å² |  | CCCCC/C=C\C/C=C\CCCCCCCCCCCC(=O)O[C@H](COC(=O)CCCCCCCCCCCCCCCCC)COP(=O)(O)OC[C@H](N)C(=O)O [PS(40:02)] | 
 | 292.62 Å² | 296.28 Å² | CCCCC/C=C\C/C=C\CCCCCCCCCCCC(=O)O[C@H](COC(=O)CCCCCCC/C=C\CCCCCCCC)COP(=O)(O)OC[C@H](N)C(=O)O [PS(40:03)] | 
295.61 Å² | 287.73 Å² | 291.7 Å² | CCCCC/C=C\C/C=C\C/C=C\C/C=C\CCCCCC(=O)O[C@H](COC(=O)CCCCCCC/C=C\C/C=C\CCCCC)COP(=O)(O)OC[C@H](N)C(=O)O [PS(40:06)] | collision cross section (N2) ([2]; [M+K]+): 292.76 Å²; collision cross section (N2) ([2]; [M-H]-): 289.09 Å²
290.15 Å² |  | 289.65 Å² | CC/C=C\C/C=C\C/C=C\CCCCCCCC(=O)O[C@H](COC(=O)CCCCC/C=C\C/C=C\C/C=C\C/C=C\CCCCC)COP(=O)(O)OC[C@H](N)C(=O)O [PS(40:07)] | collision cross section (N2) ([2]; [M-H]-): 287.37 Å²
287.97 Å² |  |  | CC/C=C\C/C=C\C/C=C\C/C=C\C/C=C\CCCC(=O)O[C@H](COC(=O)CCCCCC/C=C\C/C=C\C/C=C\CCCCC)COP(=O)(O)OC[C@H](N)C(=O)O [PS(40:08)] | 
298.43 Å² |  |  | CC/C=C\C/C=C\C/C=C\C/C=C\C/C=C\CCCC(=O)OC[C@H](COP(=O)(O)OC[C@H](N)C(=O)O)OC(=O)CCCCCCCCCCCCCCCCCCCC [PS(41:05)] | 
 | 301.86 Å² | 303.25 Å² | CCCCCCCCCC/C=C\CCCCCCCCCC(=O)O[C@H](COC(=O)CCCCCCCCCCCCCCCCCCC)COP(=O)(O)OC[C@H](N)C(=O)O [PS(42:01)] | 
296.35 Å² |  |  | CC/C=C\C/C=C\C/C=C\C/C=C\C/C=C\C/C=C\CCC(=O)O[C@H](COC(=O)CCCCCCCCC/C=C\CCCCCCCC)COP(=O)(O)OC[C@H](N)C(=O)O [PS(42:07)] | 
306.87 Å² |  |  | CCCCC/C=C\C/C=C\C/C=C\C/C=C\CCCCCC(=O)OC[C@H](COP(=O)(O)OC[C@H](N)C(=O)O)OC(=O)CCCCCCCCC/C=C\CCCCCCCCCC [PS(44:05)] | 
303.11 Å² |  |  | CC/C=C\C/C=C\C/C=C\C/C=C\C/C=C\C/C=C\CCC(=O)O[C@H](COC(=O)CCCCCCCCC/C=C\CCCCCCCCCC)COP(=O)(O)OC[C@H](N)C(=O)O [PS(44:07)] | 
 | 280.06 Å² | 278.77 Å² | CCCCCCCCCCCCC=CC[C@@H](O)[C@H](COP(=O)([O-])OCC[N+](C)(C)C)NC(=O)CCCCCCCCCCCCCCC [SM(34:01)] | collision cross section (N2) ([2]; [M+Cl]-): 284.26 Å²; collision cross section (N2) ([2]; [M+HCOO]-): 284.66 Å²
 | 286.24 Å² | 285.86 Å² | CCCCCCCCCCCCC=CC[C@@H](O)[C@H](COP(=O)([O-])OCC[N+](C)(C)C)NC(=O)CCCCCCCCCCCCCCCCC [SM(36:01)] | collision cross section (N2) ([2]; [M+Cl]-): 288.69 Å²; collision cross section (N2) ([2]; [M+HCOO]-): 290.34 Å²; collision cross section (N2) ([2]; [M+K]+): 288.38 Å²; collision cross section (N2) ([2]; [M+Na-H2O]+): 280.09 Å²
 | 295.66 Å² | 292.53 Å² | CCCCCCCCCCCCC=CC[C@@H](O)[C@H](COP(=O)([O-])OCC[N+](C)(C)C)NC(=O)CC=CCCCCCCCCCCCCCCCCCC [SM(40:02)] | collision cross section (N2) ([2]; [M+Cl]-): 299.55 Å²; collision cross section (N2) ([2]; [M+HCOO]-): 299.75 Å²
 | 305.33 Å² |  | CCCCCCCCCCCCCCCCCCCCCCCC(=O)N[C@@H](COP(=O)([O-])OCC[N+](C)(C)C)[C@H](O)CCCCCCCCCCCCCCC [SM(42:00)] | collision cross section (N2) ([2]; [M+HCOO]-): 308.73 Å²
 | 307.52 Å² | 306.5 Å² | CCCCCCCCCCCCC=CC[C@@H](O)[C@H](COP(=O)([O-])OCC[N+](C)(C)C)NC(=O)CC=CCCCCCCCCCCCCCCCCCCCCCC [SM(44:02)] | 

Continued, molecule first:

SMILES | collision cross section (N2) ([2]; [M+2Na-H]+) | collision cross section (N2) ([2]; [M+H]+) | collision cross section (N2) ([2]; [M+Na]+) | further results
COc1cc(CCN)c(OC)cc1I [2C-I] |  |  |  | collision cross section (N2) [1]: 157.7 Å²
COc1ccc2[nH]cc(CCN(C)C)c2c1 [5-MeO-DMT] |  |  |  | collision cross section (N2) [1]: 150.3 Å²
CCCCCCCCCCC/C=C\CCCCC(=O)O[C@H](COC(=O)CCCCCCCCCCCCCCCCC)COP(=O)([O-])OCC[N+](C)(C)C [PC(36:01)] | 292.02 Å² | 288.22 Å² | 290.25 Å² | collision cross section (N2) ([2]; [M+Cl]-): 296.27 Å²; collision cross section (N2) ([2]; [M+HCOO]-): 296.46 Å²; collision cross section (N2) ([2]; [M+K]+): 291.07 Å²
CCCCCCCC/C=C\C/C=C\CCCCC(=O)O[C@H](COC(=O)CCCCCCC/C=C\CCCCCCCC)COP(=O)([O-])OCC[N+](C)(C)C [PC(36:03)] | 288.51 Å² |  | 287.02 Å² | collision cross section (N2) ([2]; [M+Cl]-): 293.42 Å²; collision cross section (N2) ([2]; [M+HCOO]-): 293.56 Å²
CCCCC/C=C\C/C=C\CCCCCCCCCC(=O)O[C@H](COC(=O)CCCCCCCCCCCCCCCCC)COP(=O)([O-])OCC[N+](C)(C)C [PC(38:02)] |  |  |  | collision cross section (N2) ([2]; [M+Cl]-): 300.55 Å²
CCCCC/C=C\C/C=C\C/C=C\CCCCCCC(=O)O[C@H](COC(=O)CCCCCCC/C=C\CCCCCCCC)COP(=O)([O-])OCC[N+](C)(C)C [PC(38:04)] |  |  |  | collision cross section (N2) ([2]; [M+Cl]-): 298.46 Å²; collision cross section (N2) ([2]; [M+HCOO]-): 298.03 Å²
CCCCC/C=C\C/C=C\C/C=C\C/C=C\CCCC(=O)O[C@H](COC(=O)CCCCCCCCCCCCCCCCCCC)COP(=O)([O-])OCC[N+](C)(C)C [PC(40:04)] |  |  | 297.42 Å² | 
CC/C=C\C/C=C\C/C=C\CCCCCCCC(=O)O[C@H](COC(=O)CCCCCCCCCCCCCCC)COP(=O)(O)OCCN [PE(34:03)] | 271.16 Å² | 265.93 Å² | 271.73 Å² | collision cross section (N2) ([2]; [M-H]-): 263.76 Å²
CCCC/C=C\CCCCCCCC(=O)OC[C@H](COP(=O)(O)OCCN)OC(=O)CCCCCCCCCCCCCCCCCCCC [PE(35:01)] | 279.57 Å² |  | 279.26 Å² | 
CCCCC/C=C\C/C=C\CCCCCCCCCC(=O)O[C@H](COC(=O)CCCCCCC/C=C\CCCCCC)COP(=O)(O)OCCN [PE(36:03)] | 279.42 Å² | 273.34 Å² | 277.57 Å² | collision cross section (N2) ([2]; [M+K]+): 278.94 Å²; collision cross section (N2) ([2]; [M-H]-): 269.84 Å²
CCCCCCCC/C=C\C/C=C\CCCCC(=O)OC[C@H](COP(=O)(O)OCCN)OC(=O)CCCC/C=C\C/C=C\CCCCCCCC [PE(36:04)] | 277.05 Å² |  |  | collision cross section (N2) ([2]; [M+K]+): 277.24 Å²; collision cross section (N2) ([2]; [M-H]-): 269.7 Å²
CCCCC/C=C\C/C=C\C/C=C\CCCCCCC(=O)O[C@H](COC(=O)CCCCCCC/C=C\C/C=C\CCCCC)COP(=O)(O)OCCN [PE(38:05)] | 283.55 Å² |  |  | collision cross section (N2) ([2]; [M+K]+): 282.77 Å²; collision cross section (N2) ([2]; [M-H]-): 274.82 Å²
CCCCC/C=C\C/C=C\C/C=C\C/C=C\CCCCCC(=O)O[C@H](COC(=O)CCCCCCC/C=C\C/C=C\CCCCC)COP(=O)(O)OCCN [PE(40:06)] | 287.86 Å² |  |  | collision cross section (N2) ([2]; [M-H]-): 280.5 Å²
CCCCC/C=C\C/C=C\C/C=C\C/C=C\CCCCCC(=O)O[C@H](COC(=O)CCC/C=C\C/C=C\C/C=C\C/C=C\CCCCC)COP(=O)(O)OCCN [PE(42:08)] |  |  | 290.41 Å² | 
CC/C=C\C/C=C\C/C=C\C/C=C\C/C=C\C/C=C\CCC(=O)O[C@H](COC(=O)CCCCCC/C=C\C/C=C\C/C=C\CCCCC)COP(=O)(O)OCCN [PE(42:09)] |  |  | 288.64 Å² | 
CCCC/C=C\CCCCCCCC(=O)O[C@H](COCCCCCCCCCCCCCCCCCC)COP(=O)(O)OCCN [PE(o32:01)] | 268.35 Å² |  |  | 
CCCCC/C=C\C/C=C\CCCCCCCC(=O)O[C@H](COCCCCCCCCCCCCCCCC)COP(=O)(O)OCCN [PE(o34:02)] | 273.55 Å² |  | 273.65 Å² | 
CCCCC/C=C\C/C=C\C/C=C\CCCCC(=O)O[C@H](COCCCCCCCCCCCCCCCCCC)COP(=O)(O)OCCN [PE(o36:03)] | 279.47 Å² | 272.47 Å² | 277.92 Å² | 
CCCCC/C=C\C/C=C\C/C=C\C/C=C\CCCC(=O)O[C@H](COCCCCCCCCCCCCCCCC)COP(=O)(O)OCCN [PE(o36:04)] | 278.13 Å² |  |  | 

From the C3SDB collision cross section collection
